Reference: ChEMBL document CHEMBL1130900, “Synthesis and structure-activity relationships of 2-pyridones: II. 8-(Fluoro-substituted pyrrolidinyl)-2-pyridones as antibacterial agents” (Bioorg Med Chem Lett, 1998)
Converted amounts (≈) assume the structure as drawn.

Legend:
[1] = system: DNA gyrase (bacterial); assay: Compound was tested for bacterial DNA gyrase activity; conditions: Bacteria
[2] = system: Staphylococcus aureus; assay: Antibacterial activity against Staphylococcus aureus A1775 was determined; type: functional
[3] = system: Enterococcus faecium; assay: Antibacterial activity against Enterococcus faecium ATCC 8043 was determined; type: functional
[4] = system: Pseudomonas aeruginosa; assay: Antibacterial activity against Pseudomonas aeruginosa A-5007 was determined; type: functional
[5] = system: Streptococcus pyogenes; assay: Antibacterial activity against Streptococcus pyogenes EES61 was determined; type: functional
[6] = system: Klebsiella pneumoniae; assay: Antibacterial activity against Klebsiella pneumoniae ATCC 8045 was determined; type: functional
[7] = system: Streptococcus equinus; assay: Antibacterial activity against Gram-positive Streptococcus bovis A5169 was determined; type: functional; conditions: Streptococcus equinus; read-out: MIC
[8] = system: Staphylococcus aureus; assay: Antibacterial activity against Staphylococcus aureus NCTC-10649M was determined; type: functional
[9] = system: Klebsiella aerogenes; assay: Antibacterial activity against Enterobacter aerogenes ATCC 13048 was determined; type: functional
[10] = system: Escherichia coli; assay: Effective dose against Escherichia coli JUHL in mice upon subcutaneous administration; type: functional; conditions: sc
[11] = system: Staphylococcus aureus; assay: Effective dose against Staphylococcus aureus NCTC-10649M in mice upon peroral administration; type: functional; conditions: po
[12] = system: Staphylococcus aureus; assay: Effective dose against Staphylococcus aureus NCTC-10649M in mice upon subcutaneous administration; type: functional; conditions: sc
[13] = Compound was tested for its effective dose against Escherichia coli JUHL in mice upon peroral administration; type: functional; conditions: Mus musculus, po
[14] = system: Escherichia coli; assay: Antibacterial activity against Escherichia coli JUHL was determined; type: functional
[15] = system: Providencia stuartii; assay: Antibacterial activity against Gram-negative Providencia Stuartii CMX640 was determined; type: functional
[16] = Oral bioavailability in rat (dose 5 mg/kg); type: ADME, organism-based; conditions: in vivo
[17] = Compound was evaluated for maximal plasma concentration in rat upon 5 mg/kg upon oral administration; type: ADME, organism-based; parameters: dose 5 mg/kg, route oral
[18] = system: Mus musculus; assay: Compound was tested for its effective dose against Staphylococcus aureus NCTC-10649M in mice upon peroral administration; Mice were infected with 1000xLD50; type: functional; conditions: po
[19] = system: Mus musculus; assay: Compound was tested for its effective dose against Staphylococcus aureus NCTC-10649M in mice upon subcutaneous administration; type: functional; conditions: sc
[20] = system: Mus musculus; assay: Compound was tested for its effective dose against Staphylococcus aureus NCTC-10649M in mice upon peroral administration; type: functional; conditions: po
[21] = Staphylococcus aureus, read-out: MIC
[22] = Enterococcus faecium, ATCC 8043, read-out: MIC
[23] = Pseudomonas aeruginosa, read-out: MIC
[24] = Streptococcus pyogenes, read-out: MIC
[25] = Klebsiella pneumoniae, ATCC 8045, read-out: MIC
[26] = Klebsiella aerogenes, ATCC 13048, read-out: MIC
[27] = Escherichia coli, read-out: MIC
[28] = Providencia stuartii, read-out: MIC

Row | SMILES | MIC [2, 21] | MIC [3, 22] | MIC [4, 23] | MIC [5, 24] | MIC [6, 25] | MIC [7] | MIC [8, 21] | MIC [9, 26] | ED50 [10] | ED50 [11] | ED50 [12] | ED50 [13] | MIC [14, 27] | MIC [15, 28] | bioavailability [16] | Cmax [17] | further results
1 | Cc1c(N2CC[C@H](N)C2)c(F)cn2c(=O)c(C(=O)O)cc(C3CC3)c12 [ABT-719] | 0.78 µg/mL (≈ 2.26 µM) | 0.02 µg/mL (≈ 0.0579 µM) | 0.5 µg/mL (≈ 1.45 µM) | 0.02 µg/mL (≈ 0.0579 µM) | 0.005 µg/mL (≈ 0.0145 µM) | 0.02 µg/mL (≈ 0.0579 µM) | 0.1 µg/mL (≈ 0.29 µM) | 0.005 µg/mL (≈ 0.0145 µM) | 0.1 mg/kg/day | 3.4 mg/kg/day | 0.6 mg/kg/day | 0.6 mg/kg/day | 0.002 µg/mL (≈ 0.00579 µM) | 0.2 µg/mL (≈ 0.579 µM) |  |  | CC50 [1]: 0.03 µg/mL (≈ 0.0869 µM)
2 | Cc1c(N2CC[C@H]([C@@H](N)C(F)(F)F)C2)c(F)cn2c(=O)c(C(=O)O)cc(C3CC3)c12 | 0.39 µg/mL (≈ 0.912 µM) | 0.1 µg/mL (≈ 0.234 µM) | 6.2 µg/mL (≈ 14.5 µM) | 0.2 µg/mL (≈ 0.468 µM) | 0.2 µg/mL (≈ 0.468 µM) | 0.2 µg/mL (≈ 0.468 µM) | 0.005 µg/mL (≈ 0.0117 µM) | 0.78 µg/mL (≈ 1.82 µM) | > 4 mg/kg/day | 25 mg/kg/day | 11.9 mg/kg/day | > 10 mg/kg/day | 0.2 µg/mL (≈ 0.468 µM) | 3.1 µg/mL (≈ 7.25 µM) | 57% | 800 ng/mL | 
3 | Cc1c(N2C[C@@H](CF)[C@H](N)C2)c(F)cn2c(=O)c(C(=O)O)cc(C3CC3)c12 (racemic) |  |  |  |  |  |  |  |  |  |  |  |  |  |  |  |  | MIC [2]: 3.1 µg/mL (≈ 8.21 µM); MIC [3]: 0.1 µg/mL (≈ 0.265 µM); MIC [4]: 0.39 µg/mL (≈ 1.03 µM); MIC [5]: 0.1 µg/mL (≈ 0.265 µM); MIC [6]: 0.005 µg/mL (≈ 0.0132 µM); MIC [8]: 0.2 µg/mL (≈ 0.53 µM); MIC [9]: 0.05 µg/mL (≈ 0.132 µM); MIC [14]: 0.01 µg/mL (≈ 0.0265 µM); MIC [15]: 0.78 µg/mL (≈ 2.07 µM)
4 | Cc1c(N2CCC(N)(CF)C2)c(F)cn2c(=O)c(C(=O)O)cc(C3CC3)c12 (stereo unspecified) | 0.78 µg/mL (≈ 2.07 µM) | 0.1 µg/mL (≈ 0.265 µM) | 0.39 µg/mL (≈ 1.03 µM) | 0.1 µg/mL (≈ 0.265 µM) | 0.01 µg/mL (≈ 0.0265 µM) | 0.2 µg/mL (≈ 0.53 µM) | 0.02 µg/mL (≈ 0.053 µM) | 0.1 µg/mL (≈ 0.265 µM) | 4.3 mg/kg/day | 10.3 mg/kg/day | 2.7 mg/kg/day | 15.1 mg/kg/day | 0.02 µg/mL (≈ 0.053 µM) | 0.39 µg/mL (≈ 1.03 µM) | 63% | 600 ng/mL | 
5 | Cc1c(N2C[C@@H](N)[C@@H](F)C2)c(F)cn2c(=O)c(C(=O)O)cc(C3CC3)c12 | 1.56 µg/mL (≈ 4.29 µM) | 0.1 µg/mL (≈ 0.275 µM) | 0.39 µg/mL (≈ 1.07 µM) | 0.1 µg/mL (≈ 0.275 µM) | 0.05 µg/mL (≈ 0.138 µM) | 0.2 µg/mL (≈ 0.55 µM) | 0.02 µg/mL (≈ 0.055 µM) | 0.05 µg/mL (≈ 0.138 µM) | 1.8 mg/kg/day |  | 1.5 mg/kg/day | 7.4 mg/kg/day | 0.02 µg/mL (≈ 0.055 µM) | 0.78 µg/mL (≈ 2.15 µM) | 34% | 900 ng/mL | ED50 [18]: 7.7 mg/kg/day
6 | Cc1c(N2C[C@H](CF)[C@@H](N)C2)c(F)cn2c(=O)c(C(=O)O)cc(C3CC3)c12 | 3.1 µg/mL (≈ 8.21 µM) | 0.2 µg/mL (≈ 0.53 µM) | 0.39 µg/mL (≈ 1.03 µM) | 0.2 µg/mL (≈ 0.53 µM) | 0.002 µg/mL (≈ 0.0053 µM) | 0.39 µg/mL (≈ 1.03 µM) | 0.01 µg/mL (≈ 0.0265 µM) | 0.02 µg/mL (≈ 0.053 µM) | 0.4 mg/kg/day | 11.5 mg/kg/day | 1.2 mg/kg/day | 3 mg/kg/day | 0.1 µg/mL (≈ 0.265 µM) | 0.78 µg/mL (≈ 2.07 µM) |  |  | 
7 | Cc1c(N2CCC(CN)(CF)C2)c(F)cn2c(=O)c(C(=O)O)cc(C3CC3)c12 (stereo unspecified) | 1.56 µg/mL (≈ 3.99 µM) | 0.1 µg/mL (≈ 0.255 µM) | 0.78 µg/mL (≈ 1.99 µM) | 0.05 µg/mL (≈ 0.128 µM) | 0.1 µg/mL (≈ 0.255 µM) | 0.1 µg/mL (≈ 0.255 µM) | 0.02 µg/mL (≈ 0.0511 µM) |  | 1.5 mg/kg/day | 3.8 mg/kg/day | 1.5 mg/kg/day | > 10 mg/kg/day | 0.05 µg/mL (≈ 0.128 µM) | 0.78 µg/mL (≈ 1.99 µM) |  |  | 
8 | O=C(O)c1cn(C2CC2)c2cc(N3CCNCC3)c(F)cc2c1=O [CIPROFLOXACIN] | > 100 µg/mL | 0.78 µg/mL (≈ 2.35 µM) | 0.2 µg/mL (≈ 0.604 µM) |  | 0.02 µg/mL (≈ 0.0604 µM) | 0.78 µg/mL (≈ 2.35 µM) | 0.39 µg/mL (≈ 1.18 µM) | 0.02 µg/mL (≈ 0.0604 µM) | 0.1 mg/kg/day |  |  | 1 mg/kg/day |  | 1.56 µg/mL (≈ 4.71 µM) |  |  | ED50 [19]: 4.1 mg/kg/day; ED50 [20]: 28.2 mg/kg/day
9 | Cc1c(N2CC[C@@H]([C@@H](N)C(F)(F)F)C2)c(F)cn2c(=O)c(C(=O)O)cc(C3CC3)c12 | 0.78 µg/mL (≈ 1.82 µM) | 0.39 µg/mL (≈ 0.912 µM) | 6.2 µg/mL (≈ 14.5 µM) | 0.2 µg/mL (≈ 0.468 µM) | 0.39 µg/mL (≈ 0.912 µM) | 0.39 µg/mL (≈ 0.912 µM) | 0.02 µg/mL (≈ 0.0468 µM) | 1.56 µg/mL (≈ 3.65 µM) |  |  |  |  | 0.78 µg/mL (≈ 1.82 µM) | 6.2 µg/mL (≈ 14.5 µM) |  |  | 
